# From article PMC6409085, “Three odorant-binding proteins are involved in the behavioral response of Sogatella furcifera to rice plant volatiles” (PeerJ, 2019)
# Several values for one entry are separate records, joined by “and”; a condition that tells them apart may be missing. Equal entries are not always repeated.
# Legend:
# SfurOBP1 = SfurOBP1 (Sogatella furcifera, UniProt V5T8N5); assay: biochemical; assay type: binding; conditions: for Fluorescence competitive binding assay, fluorescence intensity: OBP1, three replicate columns
# SfurOBP1, sequence (V5T8N5 entry or part of it): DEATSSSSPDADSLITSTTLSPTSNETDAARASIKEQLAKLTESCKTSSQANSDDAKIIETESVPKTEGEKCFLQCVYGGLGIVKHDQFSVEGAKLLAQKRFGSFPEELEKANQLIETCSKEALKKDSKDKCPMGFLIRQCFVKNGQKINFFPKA
# Outline: (§1)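 Protein 2.0 µM + 1-NPN 2.0 µM, 50 mM Tris-HCl pH 7.4; competitor odorants 2, 4 … 20 µM final; read 2 min post-addition, ex 337/em 390–490 nm; n=3. K1-NPN from 1-NPN titration/Scatchard; Ki from IC50 corrected for free 1-NPN.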
# SfurOBP11 = SfurOBP11 (Sogatella furcifera, UniProt V5T6E3); assay: biochemical; assay type: binding
# SfurOBP11, sequence (V5T6E3 entry or part of it): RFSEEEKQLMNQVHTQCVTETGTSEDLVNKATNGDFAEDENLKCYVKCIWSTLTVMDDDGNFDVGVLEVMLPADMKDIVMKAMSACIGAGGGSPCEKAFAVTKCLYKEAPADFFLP
# Outline: as §1
# SfurOBP2 = SfurOBP2 (Sogatella furcifera, UniProt V5T759); assay: biochemical; assay type: binding
# SfurOBP2, sequence (V5T759 entry or part of it): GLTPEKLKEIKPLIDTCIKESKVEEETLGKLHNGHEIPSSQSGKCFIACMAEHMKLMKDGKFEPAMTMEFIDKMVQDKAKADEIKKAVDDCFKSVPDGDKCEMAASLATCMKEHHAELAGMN
# Outline: as §1
# SfurOBP3 = SfurOBP3 (Sogatella furcifera, UniProt V5T818); assay: biochemical; assay type: binding; conditions: for Fluorescence competitive binding assay, fluorescence intensity: OBP3, three replicate columns
# SfurOBP3, sequence (V5T818 entry or part of it): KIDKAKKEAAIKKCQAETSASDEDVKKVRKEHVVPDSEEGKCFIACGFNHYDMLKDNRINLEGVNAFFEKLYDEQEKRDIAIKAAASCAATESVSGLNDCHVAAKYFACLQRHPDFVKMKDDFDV
# Outline: as §1
# S. furcifera adults = assay: Y-tube olfactometer behavioral trials; assay type: in vivo, Sogatella furcifera; conditions: odorant 50 µL/L vs hexane; adults
# Procedure: To test the effect of the rice odorants on the behavior of S. furcifera adults, a glass Y-tube olfactometer (inner diameter 2.0 cm, stem 13 cm, arms 10 cm, angle of arms 60°) according to the previously described ([Wang et al., 2014b]) was employed. An airtight cubic box (70 by 45 by 30 cm) was used to position Y-tube, and the Y-tube was lighted by a 30-W filament lamp 25 cm above it. Air that filtered through activated charcoal and humidified with doubly distilled water was pumped in both arms at a flow rate of 300 mL/min. Two filter paper strips (10 by 1 cm) containing 100 µL odorant source (50 µL/L) and 100 µL control hexane were placed in two holding chambers in the front of the olfactometer, respectively. A S. furcifera adult (2 days after emergence, starved for 0.5 h) was randomly chosen and placed in the stem of the Y-tube. Each insect was given 10 min to choose between the two arms of the Y-tube, the choice was noted if the planthopper reached one-half of the arms’ lengths and stayed in the arm for more than 1 min. Besides, S. furcifera was considered as having no orientation preference. Forty-five individuals were used for each compound, each insect used only once. And the dual-choice experiment was done in an environmentally controlled room (25 ± 1 °C and 50% RH). A Chi-squared test was used to analyze the behavioral assay data by using SPSS19.0 (SPSS Inc., Chicago, IL, USA) software.
smiles,measurement,setting,value
CCCCCC=O [caproaldehyde],"Fluorescence competitive binding assay, fluorescence intensity",SfurOBP1; ligand concentration 2 (μM),7058 and 6495 and 6761
same,"Fluorescence competitive binding assay, fluorescence intensity",SfurOBP1; ligand concentration 4 (μM),6839 and 6210 and 6737
same,"Fluorescence competitive binding assay, fluorescence intensity",SfurOBP1; ligand concentration 6 (μM),6250 and 6285 and 6245
same,"Fluorescence competitive binding assay, fluorescence intensity",SfurOBP1; ligand concentration 8 (μM),7860 and 6318 and 6460
same,"Fluorescence competitive binding assay, fluorescence intensity",SfurOBP1; ligand concentration 10 (μM),7929 and 6952 and 5745
same,"Fluorescence competitive binding assay, fluorescence intensity",SfurOBP1; ligand concentration 12 (μM),6197 and 6258 and 6135
same,"Fluorescence competitive binding assay, fluorescence intensity",SfurOBP1; ligand concentration 14 (μM),6889 and 6127 and 7279
same,"Fluorescence competitive binding assay, fluorescence intensity",SfurOBP1; ligand concentration 16 (μM),6363 and 6530 and 5971
same,"Fluorescence competitive binding assay, fluorescence intensity",SfurOBP1; ligand concentration 18 (μM),6197 and 6677 and 5953
same,"Fluorescence competitive binding assay, fluorescence intensity",SfurOBP1; ligand concentration 20 (μM),6241 and 6216 and 6243
same,IC50,"SfurOBP1; SfurOBP1, protein and 1-NPN both 2.0 µM, competitor 2-20 µM, read-out: IC50",> 20 µM
same,IC50,"SfurOBP11; SfurOBP11, protein and 1-NPN both 2.0 µM, competitor 2-20 µM, read-out: IC50",> 20 µM
same,"Fluorescence intensity, fluorescence competitive binding assay, OBP11","SfurOBP11; ligand concentration 2, replicate 1",29622
same,"Fluorescence intensity, fluorescence competitive binding assay, OBP11","SfurOBP11; ligand concentration 2, replicate 2",27160
same,"Fluorescence intensity, fluorescence competitive binding assay, OBP11","SfurOBP11; ligand concentration 2, replicate 3",24651
same,"Fluorescence intensity, fluorescence competitive binding assay, OBP11","SfurOBP11; ligand concentration 4, replicate 1",27823
same,"Fluorescence intensity, fluorescence competitive binding assay, OBP11","SfurOBP11; ligand concentration 4, replicate 2",29657
same,"Fluorescence intensity, fluorescence competitive binding assay, OBP11","SfurOBP11; ligand concentration 4, replicate 3",29706
same,"Fluorescence intensity, fluorescence competitive binding assay, OBP11","SfurOBP11; ligand concentration 6, replicate 1",29000
same,"Fluorescence intensity, fluorescence competitive binding assay, OBP11","SfurOBP11; ligand concentration 6, replicate 2",25791
same,"Fluorescence intensity, fluorescence competitive binding assay, OBP11","SfurOBP11; ligand concentration 6, replicate 3",27264
same,"Fluorescence intensity, fluorescence competitive binding assay, OBP11","SfurOBP11; ligand concentration 8, replicate 1",26196
same,"Fluorescence intensity, fluorescence competitive binding assay, OBP11","SfurOBP11; ligand concentration 8, replicate 2",25787
same,"Fluorescence intensity, fluorescence competitive binding assay, OBP11","SfurOBP11; ligand concentration 8, replicate 3",26691
same,"Fluorescence intensity, fluorescence competitive binding assay, OBP11","SfurOBP11; ligand concentration 10, replicate 1",22993
same,"Fluorescence intensity, fluorescence competitive binding assay, OBP11","SfurOBP11; ligand concentration 10, replicate 2",24045
same,"Fluorescence intensity, fluorescence competitive binding assay, OBP11","SfurOBP11; ligand concentration 10, replicate 3",23459
same,"Fluorescence intensity, fluorescence competitive binding assay, OBP11","SfurOBP11; ligand concentration 12, replicate 1",23301
same,"Fluorescence intensity, fluorescence competitive binding assay, OBP11","SfurOBP11; ligand concentration 12, replicate 2",22698
same,"Fluorescence intensity, fluorescence competitive binding assay, OBP11","SfurOBP11; ligand concentration 12, replicate 3",22770
same,"Fluorescence intensity, fluorescence competitive binding assay, OBP11","SfurOBP11; ligand concentration 14, replicate 1",21327
same,"Fluorescence intensity, fluorescence competitive binding assay, OBP11","SfurOBP11; ligand concentration 14, replicate 2",20283
same,"Fluorescence intensity, fluorescence competitive binding assay, OBP11","SfurOBP11; ligand concentration 14, replicate 3",20685
same,"Fluorescence intensity, fluorescence competitive binding assay, OBP11","SfurOBP11; ligand concentration 16, replicate 1",18242
same,"Fluorescence intensity, fluorescence competitive binding assay, OBP11","SfurOBP11; ligand concentration 16, replicate 2",16904
same,"Fluorescence intensity, fluorescence competitive binding assay, OBP11","SfurOBP11; ligand concentration 16, replicate 3",18315
same,"Fluorescence intensity, fluorescence competitive binding assay, OBP11","SfurOBP11; ligand concentration 18, replicate 1",21574
same,"Fluorescence intensity, fluorescence competitive binding assay, OBP11","SfurOBP11; ligand concentration 18, replicate 2",21057
same,"Fluorescence intensity, fluorescence competitive binding assay, OBP11","SfurOBP11; ligand concentration 18, replicate 3",21178
same,"Fluorescence intensity, fluorescence competitive binding assay, OBP11","SfurOBP11; ligand concentration 20, replicate 1",19958
same,"Fluorescence intensity, fluorescence competitive binding assay, OBP11","SfurOBP11; ligand concentration 20, replicate 2",19749
same,"Fluorescence intensity, fluorescence competitive binding assay, OBP11","SfurOBP11; ligand concentration 20, replicate 3",19854
same,IC50,"SfurOBP2; SfurOBP2, protein and 1-NPN both 2.0 µM, competitor 2-20 µM, read-out: IC50",> 20 µM
same,"Fluorescence competitive binding assay, OBP2 (raw fluorescence reading)","SfurOBP2; ligand concentration 2 (unit not given), replicate column 1 of 3",19948
same,"Fluorescence competitive binding assay, OBP2 (raw fluorescence reading)","SfurOBP2; ligand concentration 2 (unit not given), replicate column 2 of 3",17721
same,"Fluorescence competitive binding assay, OBP2 (raw fluorescence reading)","SfurOBP2; ligand concentration 2 (unit not given), replicate column 3 of 3",20397
same,"Fluorescence competitive binding assay, OBP2 (raw fluorescence reading)","SfurOBP2; ligand concentration 4 (unit not given), replicate column 1 of 3",18968
same,"Fluorescence competitive binding assay, OBP2 (raw fluorescence reading)","SfurOBP2; ligand concentration 4 (unit not given), replicate column 2 of 3",18911
same,"Fluorescence competitive binding assay, OBP2 (raw fluorescence reading)","SfurOBP2; ligand concentration 4 (unit not given), replicate column 3 of 3",20133
same,"Fluorescence competitive binding assay, OBP2 (raw fluorescence reading)","SfurOBP2; ligand concentration 6 (unit not given), replicate column 1 of 3",20477
same,"Fluorescence competitive binding assay, OBP2 (raw fluorescence reading)","SfurOBP2; ligand concentration 6 (unit not given), replicate column 2 of 3",18306
same,"Fluorescence competitive binding assay, OBP2 (raw fluorescence reading)","SfurOBP2; ligand concentration 6 (unit not given), replicate column 3 of 3",21619
same,"Fluorescence competitive binding assay, OBP2 (raw fluorescence reading)","SfurOBP2; ligand concentration 8 (unit not given), replicate column 1 of 3",17546
same,"Fluorescence competitive binding assay, OBP2 (raw fluorescence reading)","SfurOBP2; ligand concentration 8 (unit not given), replicate column 2 of 3",19283
same,"Fluorescence competitive binding assay, OBP2 (raw fluorescence reading)","SfurOBP2; ligand concentration 8 (unit not given), replicate column 3 of 3",19094
same,"Fluorescence competitive binding assay, OBP2 (raw fluorescence reading)","SfurOBP2; ligand concentration 10 (unit not given), replicate column 1 of 3",16315
same,"Fluorescence competitive binding assay, OBP2 (raw fluorescence reading)","SfurOBP2; ligand concentration 10 (unit not given), replicate column 2 of 3",17446
same,"Fluorescence competitive binding assay, OBP2 (raw fluorescence reading)","SfurOBP2; ligand concentration 10 (unit not given), replicate column 3 of 3",18120
same,"Fluorescence competitive binding assay, OBP2 (raw fluorescence reading)","SfurOBP2; ligand concentration 12 (unit not given), replicate column 1 of 3",15600
same,"Fluorescence competitive binding assay, OBP2 (raw fluorescence reading)","SfurOBP2; ligand concentration 12 (unit not given), replicate column 2 of 3",16015
same,"Fluorescence competitive binding assay, OBP2 (raw fluorescence reading)","SfurOBP2; ligand concentration 12 (unit not given), replicate column 3 of 3",15598
same,"Fluorescence competitive binding assay, OBP2 (raw fluorescence reading)","SfurOBP2; ligand concentration 14 (unit not given), replicate column 1 of 3",15415
same,"Fluorescence competitive binding assay, OBP2 (raw fluorescence reading)","SfurOBP2; ligand concentration 14 (unit not given), replicate column 2 of 3",15014
same,"Fluorescence competitive binding assay, OBP2 (raw fluorescence reading)","SfurOBP2; ligand concentration 14 (unit not given), replicate column 3 of 3",15552
same,"Fluorescence competitive binding assay, OBP2 (raw fluorescence reading)","SfurOBP2; ligand concentration 16 (unit not given), replicate column 1 of 3",16559
same,"Fluorescence competitive binding assay, OBP2 (raw fluorescence reading)","SfurOBP2; ligand concentration 16 (unit not given), replicate column 2 of 3",13446
same,"Fluorescence competitive binding assay, OBP2 (raw fluorescence reading)","SfurOBP2; ligand concentration 16 (unit not given), replicate column 3 of 3",13014
same,"Fluorescence competitive binding assay, OBP2 (raw fluorescence reading)","SfurOBP2; ligand concentration 18 (unit not given), replicate column 1 of 3",16224
same,"Fluorescence competitive binding assay, OBP2 (raw fluorescence reading)","SfurOBP2; ligand concentration 18 (unit not given), replicate column 2 of 3",16658
same,"Fluorescence competitive binding assay, OBP2 (raw fluorescence reading)","SfurOBP2; ligand concentration 18 (unit not given), replicate column 3 of 3",15875
same,"Fluorescence competitive binding assay, OBP2 (raw fluorescence reading)","SfurOBP2; ligand concentration 20 (unit not given), replicate column 1 of 3",15466
same,"Fluorescence competitive binding assay, OBP2 (raw fluorescence reading)","SfurOBP2; ligand concentration 20 (unit not given), replicate column 2 of 3",14819
same,"Fluorescence competitive binding assay, OBP2 (raw fluorescence reading)","SfurOBP2; ligand concentration 20 (unit not given), replicate column 3 of 3",14364
same,"Fluorescence competitive binding assay, fluorescence intensity",SfurOBP3; ligand concentration 2,54416 and 49651 and 50603
same,"Fluorescence competitive binding assay, fluorescence intensity",SfurOBP3; ligand concentration 4,47681 and 49063 and 52745
same,"Fluorescence competitive binding assay, fluorescence intensity",SfurOBP3; ligand concentration 6,47400 and 49699 and 51997
same,"Fluorescence competitive binding assay, fluorescence intensity",SfurOBP3; ligand concentration 8,47134 and 47465 and 47300
same,"Fluorescence competitive binding assay, fluorescence intensity",SfurOBP3; ligand concentration 10,47300 and 47488 and 47127
same,"Fluorescence competitive binding assay, fluorescence intensity",SfurOBP3; ligand concentration 12,41818 and 40552 and 41184
same,"Fluorescence competitive binding assay, fluorescence intensity",SfurOBP3; ligand concentration 14,39535 and 41064 and 41296
same,"Fluorescence competitive binding assay, fluorescence intensity",SfurOBP3; ligand concentration 16,37737 and 36118 and 39070
same,"Fluorescence competitive binding assay, fluorescence intensity",SfurOBP3; ligand concentration 18,41678 and 41915 and 41872
same,"Fluorescence competitive binding assay, fluorescence intensity",SfurOBP3; ligand concentration 20,43199 and 40517 and 41843
same,IC50,"SfurOBP3; SfurOBP3, protein and 1-NPN both 2.0 µM, competitor 2-20 µM, read-out: IC50",> 20 µM
same,number of insects choosing hexane arm,S. furcifera adults,9
same,number of insects choosing volatilies arm,S. furcifera adults,12
same,number of insects failed (no choice),S. furcifera adults,19
